Data published in article PMC5748833, “Synthesis and Biological Evaluation of Novel Hybrid Molecules Containing Purine, Coumarin and Isoxazoline or Isoxazole Moieties” (The Open Medicinal Chemistry Journal, 2017).
Values joined by “and” are separate entries in the source; they are usually repeats but may differ in a detail not shown here. Equal values may be shown once.

Key:
[1] = Inhibition of linoleic acid lipid peroxidation (AAPH); conditions: 100 μM compound, 37°C
Protocol: 2.2.2.3 Inhibition of linoleic acid lipid peroxidation
Production of conjugated diene hydroperoxide by oxidation of linoleic acid sodium salt in an aqueous solution was monitored at 234 nm. 2,2’-Azobis(2-amidinopropane) dihydrochloride (AAPH) was used as a free radical initiator. 10 μl of the 16 mM linoleic acid sodium salt solution was added to the UV cuvette containing 0.93 ml of 0.05 M phosphate buffer, pH 7.4 prethermostated at 37°C. The oxidation reaction was initiated at 37°C under air by the addition of 50 μl of 40 mM AAPH solution. Oxidation was carried out in the presence of 10 μl of the examined compounds (stock solution in DMSO). In the assay without antioxidant, lipid oxidation was measured in the presence of the same level of DMSO. The rate of oxidation at 37°C was monitored by recording the increase in absorption at 234 nm caused by conjugated diene hydroperoxides (Table 5). Trolox was used as a standard.
Anti-lipid peroxidation activity. The water-soluble azo compound AAPH has been extensively used as a clean and controllable source of thermally produced alkyl peroxyl free radicals, through spontaneous thermal decomposition. […] In the AAPH assay, the highly reactive alkylperoxyl radicals are intercepted mainly by a hydrogen atom transfer (HAT) from the antioxidant.

[2] = target: T1, soybean lipoxygenase (Glycine max, UniProt P08170); assay: Soybean lipoxygenase inhibition in vitro; format: biochemical; conditions: for IC50: read-out: LOX IC50 μΜ; for inhibition at 100 µM: read-out: %LOX @ 100μΜ; for %LOX @ 100μΜ: 100 μM compound
T1 construct: purchased Sigma Chemical, Co. (St. Louis, MO, USA)
T1 sequence (P08170 1-839): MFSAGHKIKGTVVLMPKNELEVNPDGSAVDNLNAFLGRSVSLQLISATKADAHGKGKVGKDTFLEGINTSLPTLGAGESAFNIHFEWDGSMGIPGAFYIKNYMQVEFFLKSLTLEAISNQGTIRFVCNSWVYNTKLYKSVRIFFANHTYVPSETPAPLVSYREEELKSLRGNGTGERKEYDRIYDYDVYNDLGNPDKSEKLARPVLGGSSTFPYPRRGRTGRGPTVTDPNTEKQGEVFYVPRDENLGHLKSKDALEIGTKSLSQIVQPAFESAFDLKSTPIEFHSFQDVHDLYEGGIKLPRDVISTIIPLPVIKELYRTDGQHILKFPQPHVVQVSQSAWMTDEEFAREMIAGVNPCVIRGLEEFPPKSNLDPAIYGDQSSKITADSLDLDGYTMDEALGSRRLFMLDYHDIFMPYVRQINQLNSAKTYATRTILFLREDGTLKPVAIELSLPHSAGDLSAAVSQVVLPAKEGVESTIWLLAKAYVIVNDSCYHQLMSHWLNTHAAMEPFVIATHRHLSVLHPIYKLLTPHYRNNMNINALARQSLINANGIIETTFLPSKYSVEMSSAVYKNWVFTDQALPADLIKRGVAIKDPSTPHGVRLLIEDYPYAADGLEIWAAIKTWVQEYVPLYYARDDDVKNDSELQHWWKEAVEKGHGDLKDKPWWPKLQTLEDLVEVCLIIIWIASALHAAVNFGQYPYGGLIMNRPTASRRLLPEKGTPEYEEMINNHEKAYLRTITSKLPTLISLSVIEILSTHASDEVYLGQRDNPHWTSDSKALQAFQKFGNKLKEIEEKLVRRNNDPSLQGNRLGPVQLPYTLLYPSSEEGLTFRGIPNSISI
Protocol: 2.2.2.4 Soybean lipoxygenase inhibition study in vitro [14]
In vitro study was evaluated as reported previously. The tested compounds dissolved in ethanol were incubated at room temperature with sodium linoleate (0.1 mM) and 0.2 ml of enzyme solution (1/9 x10^-4 w/v in saline). […] Several concentrations were used for the determination of IC50 values (Table 5).
LO is the key enzyme in leukotriene biosynthesis. Leukotrienes derived from the biotransformation of arachidonic acid catalyzed by 5-lipoxygenase (5-LO), are important inflammatory mediators implicated in several diseases. LOs play a role in membrane lipid peroxidation by forming hydroperoxides in the lipid bilayer. […] Most of the LO inhibitors are antioxidants or free radical scavengers, since lipoxygenation occurs via a carbon-centered radical. The evaluation of the novel coumarin hybrids against soybean lipoxygenase LO was accomplished by the UV-based enzyme assay.

[3] = target: T2, electric eel acetylcholinesterase (eeAChE) (Electrophorus electricus, UniProt O42275); assay: biochemical; format: biochemical; conditions: for IC50: read-out: eeAChE IC50 μΜ; for inhibition at 10 µM: read-out: eeAChE % inhibn. @ 10 μΜ
T2 construct: purchased Sigma
Text: (§1) 2.2.2.5 Inhibition Study on ChEs in vitro
(§2) In vitro inhibition of electric eel acetylcholinesterase (eeAChE; 463 U/mg, Sigma) and equine serum butyrylcholinesterase (esBChE; 13 U/mg, Sigma) was investigated with a 96-well plate procedure based on the classical Ellman’s spectrophotometric test, as already described.

[4] = target: T3, equine serum butyrylcholinesterase (esBChE) (Equus caballus, UniProt P81908); assay: Inhibition of esBChE (Ellman's test); format: biochemical; conditions: for inhibition at 10 µM: read-out: esBChE % inhibn. @ 10 μΜ
T3 construct: purchased Sigma; host or cells: equine serum
Text: as §1, §2

[5] = target: T4, rat monoamine oxidase A (Rattus norvegicus, UniProt P21396); assay: Inhibition of MAO-A (spectrofluorimetric method); format: biochemical; conditions: 10 μM compound
T4 construct: from tissue
T4 sequence (P21396 1-526): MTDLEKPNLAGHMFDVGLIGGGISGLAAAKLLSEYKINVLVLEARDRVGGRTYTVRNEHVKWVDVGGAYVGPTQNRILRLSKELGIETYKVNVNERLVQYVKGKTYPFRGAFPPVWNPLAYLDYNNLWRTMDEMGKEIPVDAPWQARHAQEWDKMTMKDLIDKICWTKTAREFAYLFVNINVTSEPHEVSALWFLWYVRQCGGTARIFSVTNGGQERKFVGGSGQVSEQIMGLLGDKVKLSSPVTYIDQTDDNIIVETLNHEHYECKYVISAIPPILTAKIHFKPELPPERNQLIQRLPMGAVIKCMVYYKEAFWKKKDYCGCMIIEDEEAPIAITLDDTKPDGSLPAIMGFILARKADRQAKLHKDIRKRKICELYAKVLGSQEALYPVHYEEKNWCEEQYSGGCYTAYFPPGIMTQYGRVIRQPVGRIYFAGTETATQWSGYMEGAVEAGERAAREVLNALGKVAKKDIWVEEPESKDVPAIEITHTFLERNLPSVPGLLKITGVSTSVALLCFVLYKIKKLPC
Text: (§3) 2.2.2.6 Inhibition Study on MAOs in vitro
(§4) Inhibition of rat monoamine oxidase A and B was studied by means of a spectrofluorimetric method as previously detailed.

[6] = target: T5, rat monoamine oxidase B (Rattus norvegicus, UniProt P19643); assay: Inhibition of MAO-B (spectrofluorimetric method); format: biochemical; conditions: 10 μM compound
T5 construct: from tissue
T5 sequence (P19643 1-520): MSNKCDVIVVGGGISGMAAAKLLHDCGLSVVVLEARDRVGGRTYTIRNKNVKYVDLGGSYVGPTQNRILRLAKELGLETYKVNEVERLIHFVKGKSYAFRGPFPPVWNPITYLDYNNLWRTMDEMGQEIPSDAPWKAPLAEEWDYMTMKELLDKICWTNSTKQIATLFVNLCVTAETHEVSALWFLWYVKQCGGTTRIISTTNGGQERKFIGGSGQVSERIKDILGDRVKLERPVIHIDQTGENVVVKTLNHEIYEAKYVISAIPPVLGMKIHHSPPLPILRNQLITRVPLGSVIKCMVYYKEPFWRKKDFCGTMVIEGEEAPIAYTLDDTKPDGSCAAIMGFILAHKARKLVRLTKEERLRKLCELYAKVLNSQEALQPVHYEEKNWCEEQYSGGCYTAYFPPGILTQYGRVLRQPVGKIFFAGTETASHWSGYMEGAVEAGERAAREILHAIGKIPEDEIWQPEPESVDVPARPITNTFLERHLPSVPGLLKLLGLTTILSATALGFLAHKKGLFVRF
Text: as §3, §4

[7] = Reducing activity of the stable radical DPPH; conditions: 100 μM compound, after 20 min
Protocol: 2.2.2.1 Determination of the reducing activity of the stable radical 1, 1-diphenyl-picrylhydrazyl (DPPH)
To a solution of DPPH (100μM) in absolute ethanol an equal volume of the compounds dissolved in ethanol was added. As control solution ethanol was used. The concentration of the solutions of the compounds was 100μM. After 20 and 60 min at room temperature the absorbance was recorded at 517 nm (Table 5). NDGA was used as a standard.
The compounds were studied for their antioxidant activity by the use of the stable 2,2-diphenyl-1-picrylhydrazyl radical (DPPH) at concentration 0.1mM after 20 min. […] This purple colour generally disappears in the presence of an antioxidant. The reduction of absorbance is a measure of the free DPPH due to the action of the antioxidant. The antioxidant activity was expressed as the RA% (Reducing Activity). […] Within the group of derivatives 4 the presence of the morpholinyl or piperidinyl rings at position A as well as the carbonyl group at position B, hinder the interaction of the compounds to the free stable radical DPPH.

T2 sequence (O42275 24-633): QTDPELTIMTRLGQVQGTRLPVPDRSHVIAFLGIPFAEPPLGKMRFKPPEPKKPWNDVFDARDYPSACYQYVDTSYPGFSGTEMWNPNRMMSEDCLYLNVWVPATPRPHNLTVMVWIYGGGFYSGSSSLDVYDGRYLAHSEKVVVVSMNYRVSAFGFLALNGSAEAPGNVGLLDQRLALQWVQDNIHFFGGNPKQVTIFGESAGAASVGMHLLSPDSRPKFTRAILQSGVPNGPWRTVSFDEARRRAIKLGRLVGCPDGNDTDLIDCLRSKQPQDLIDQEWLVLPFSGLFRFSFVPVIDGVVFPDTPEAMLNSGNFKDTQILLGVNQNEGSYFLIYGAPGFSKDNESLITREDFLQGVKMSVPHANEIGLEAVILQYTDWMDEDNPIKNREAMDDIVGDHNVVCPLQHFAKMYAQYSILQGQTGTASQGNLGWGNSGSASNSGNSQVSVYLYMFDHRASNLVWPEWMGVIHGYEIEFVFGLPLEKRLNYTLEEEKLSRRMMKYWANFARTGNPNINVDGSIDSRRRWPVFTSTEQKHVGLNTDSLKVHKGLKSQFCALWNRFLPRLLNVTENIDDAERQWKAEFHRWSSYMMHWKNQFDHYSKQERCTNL
T3 sequence (P81908 whole entry): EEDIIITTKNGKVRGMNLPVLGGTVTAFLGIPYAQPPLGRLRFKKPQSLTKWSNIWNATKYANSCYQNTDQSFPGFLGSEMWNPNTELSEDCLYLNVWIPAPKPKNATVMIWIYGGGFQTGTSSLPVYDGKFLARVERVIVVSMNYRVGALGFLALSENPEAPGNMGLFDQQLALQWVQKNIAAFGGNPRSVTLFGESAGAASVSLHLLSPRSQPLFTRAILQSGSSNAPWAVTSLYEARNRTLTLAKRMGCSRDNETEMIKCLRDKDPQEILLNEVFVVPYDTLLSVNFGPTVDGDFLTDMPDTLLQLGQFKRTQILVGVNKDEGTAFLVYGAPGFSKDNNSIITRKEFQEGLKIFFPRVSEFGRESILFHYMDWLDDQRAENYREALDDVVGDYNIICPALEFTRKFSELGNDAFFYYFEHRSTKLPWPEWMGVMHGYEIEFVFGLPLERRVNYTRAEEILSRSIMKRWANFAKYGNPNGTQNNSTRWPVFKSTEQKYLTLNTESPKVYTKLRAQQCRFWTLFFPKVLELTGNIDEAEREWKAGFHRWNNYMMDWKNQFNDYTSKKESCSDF

Cc1cc(=O)oc2ccc(OCC3CC(Cn4cnc5c(N6CCOCC6)ncnc54)=NO3)cc12 (stereo not drawn) [4b]
LP % @ 100μΜ (inhibition of lipid peroxidation) [1]: no | IC50 [2]: 60 µM | IC50 [3]: 2.3 µM | inhibition at 10 µM [4]: 17% | MAO-A (%) @ 10μΜ [5]: no | MAO-B (%) @ 10μΜ [6]: 24%

Cc1cc(=O)oc2cc(OCCC3CC(Cn4cnc5c(N6CCOCC6)ncnc54)=NO3)ccc12 (stereo not drawn) [4i]
LP % @ 100μΜ (inhibition of lipid peroxidation) [1]: 54% | inhibition at 100 µM [2]: 2% | IC50 [3]: 7.7 µM | inhibition at 10 µM [4]: 15% | MAO-A (%) @ 10μΜ [5]: 25% | MAO-B (%) @ 10μΜ [6]: no

Cc1cc(=O)oc2cc(OCC3=NOC(Cn4cnc5c(Cl)ncnc54)C3)ccc12 (stereo not drawn) [11e]
LP % @ 100μΜ (inhibition of lipid peroxidation) [1]: 63% | %LOX @ 100μΜ [2]: no | IC50 [3]: 7.8 µM | inhibition at 10 µM [4]: 8% | MAO-A (%) @ 10μΜ [5]: no | MAO-B (%) @ 10μΜ [6]: 9%

Cc1cc(=O)oc2cc(OCC3=NOC(Cn4cnc5c(N6CCOCC6)ncnc54)C3)ccc12 (stereo not drawn) [11f]
LP % @ 100μΜ (inhibition of lipid peroxidation) [1]: 48% | %LOX @ 100μΜ [2]: no | inhibition at 10 µM [3]: 43% | inhibition at 10 µM [4]: 14% | MAO-A (%) @ 10μΜ [5]: 16% | MAO-B (%) @ 10μΜ [6]: 8%

Cc1cc(=O)oc2ccc(OCc3cc(Cn4cnc5c(N6CCCCC6)ncnc54)no3)cc12 [13a, 4-methyl-6-({3-[(6-piperidin-1-yl-9H-purin-9-yl)methyl]isoxazol-5-yl}methoxy)-2H-chromen-2-one]
RA% @ 100μΜ (reducing activity, DPPH) [7]: no | %LOX @ 100μΜ [2]: no | inhibition at 10 µM [3]: 40% | inhibition at 10 µM [4]: 23% | MAO-A (%) @ 10μΜ [5]: 47% | MAO-B (%) @ 10μΜ [6]: 33%

Cc1cc(=O)oc2ccc(OCc3cc(Cn4cnc5c(N6CCOCC6)ncnc54)no3)cc12 [13b]
RA% @ 100μΜ (reducing activity, DPPH) [7]: no | inhibition at 100 µM [2]: 44% | IC50 [3]: 3.1 µM | inhibition at 10 µM [4]: 13% | MAO-A (%) @ 10μΜ [5]: 12% | MAO-B (%) @ 10μΜ [6]: no

O=c1ccc2ccc(OCc3cc(Cn4cnc5c(N6CCCCC6)ncnc54)no3)cc2o1 [13e]
RA% @ 100μΜ (reducing activity, DPPH) [7]: no | IC50 [2]: 62.5 µM and 62 µM | IC50 [3]: 1.73 µM | IC50 ([4]; read-out: esBChE IC50 μΜ): 18 µM | MAO-A (%) @ 10μΜ [5]: 18% | MAO-B (%) @ 10μΜ [6]: 15%
